How the values were obtained:
Aminopeptidase N = biological target: T1, Aminopeptidase N (Sus scrofa, UniProt P15145); assay: APN Inhibition Assay; details: pH 7.2
T1 sequence (P15145 whole entry): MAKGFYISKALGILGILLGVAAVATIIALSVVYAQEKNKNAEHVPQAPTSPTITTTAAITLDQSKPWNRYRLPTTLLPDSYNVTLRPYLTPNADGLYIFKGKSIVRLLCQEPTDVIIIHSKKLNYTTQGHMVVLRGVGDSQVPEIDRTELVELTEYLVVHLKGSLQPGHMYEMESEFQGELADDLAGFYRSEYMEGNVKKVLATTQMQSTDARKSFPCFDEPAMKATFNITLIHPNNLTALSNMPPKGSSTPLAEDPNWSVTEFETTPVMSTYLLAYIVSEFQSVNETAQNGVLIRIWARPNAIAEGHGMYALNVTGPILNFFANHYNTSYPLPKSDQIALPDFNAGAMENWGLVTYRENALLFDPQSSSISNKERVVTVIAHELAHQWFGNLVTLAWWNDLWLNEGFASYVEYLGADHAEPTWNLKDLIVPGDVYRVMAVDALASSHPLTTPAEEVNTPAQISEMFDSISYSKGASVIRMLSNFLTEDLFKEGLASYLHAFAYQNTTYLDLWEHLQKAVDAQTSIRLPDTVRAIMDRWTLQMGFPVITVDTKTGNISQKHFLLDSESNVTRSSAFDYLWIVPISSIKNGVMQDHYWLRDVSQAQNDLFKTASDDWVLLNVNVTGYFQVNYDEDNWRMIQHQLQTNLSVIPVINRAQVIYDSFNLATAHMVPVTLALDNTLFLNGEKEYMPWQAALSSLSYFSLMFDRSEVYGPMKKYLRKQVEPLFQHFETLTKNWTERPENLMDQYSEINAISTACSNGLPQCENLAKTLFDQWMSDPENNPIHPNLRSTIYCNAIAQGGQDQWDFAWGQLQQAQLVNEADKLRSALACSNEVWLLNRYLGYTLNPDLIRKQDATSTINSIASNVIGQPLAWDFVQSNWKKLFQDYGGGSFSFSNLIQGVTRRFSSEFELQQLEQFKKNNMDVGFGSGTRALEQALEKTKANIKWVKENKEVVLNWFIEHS
Experimental: Briefly, the assay was performed in 96-well plates in […] PBS, pH 7.2 as the assay buffer, at 37 °C. The APN solution was mixed with compounds at various concentrations and incubated at 37 °C for 5 min. Subsequently, the substrate (l-leucine-p-nitroanilide) was added and the mixture was incubated for 30 min at 37°C.

Histone deacetylase 8 = biological target: T2, Histone deacetylase 8 (Homo sapiens, UniProt Q9BY41); assay: In vitro HDAC8 Assay
T2 sequence (Q9BY41 whole entry): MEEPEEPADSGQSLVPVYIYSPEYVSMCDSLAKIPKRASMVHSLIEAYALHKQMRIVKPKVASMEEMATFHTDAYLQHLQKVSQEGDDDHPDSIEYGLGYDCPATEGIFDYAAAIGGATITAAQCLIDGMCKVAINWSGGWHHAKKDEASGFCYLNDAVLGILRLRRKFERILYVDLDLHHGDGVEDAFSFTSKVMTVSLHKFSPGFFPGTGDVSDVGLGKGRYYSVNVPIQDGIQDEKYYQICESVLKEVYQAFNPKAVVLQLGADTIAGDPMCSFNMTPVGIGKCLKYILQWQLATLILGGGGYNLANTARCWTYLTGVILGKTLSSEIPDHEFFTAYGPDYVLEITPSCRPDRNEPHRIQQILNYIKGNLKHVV
Experimental: Briefly, the HDAC8 enzyme was diluted 20 times. Then, 10 μL of HDAC8 solution was mixed with compounds at various concentrations (50 μL). Then, 40 μL of the substrate [Boc-Lys-(acetyl)-AMC, 300 μm] was added, and the mixture was incubated at 37 °C for 30 min. Subsequently, the reaction was stopped by the addition of 100 μL of developer containing trypsin (10 μg/mL) and TSA (2 μm). Fluorescence intensity was measured by a microplate reader at excitation and emission wavelengths of 390 and 460 nm, respectively.

| IC50 (Aminopeptidase N) [µM] | IC50 (Histone deacetylase 8) [µM] | Compound |
| --- | --- | --- |
| > 100 | > 100 | CC1(C)CCC(C)(C)c2cc(NC(=O)c3ccc(C(=O)O)cc3)ccc21 [4-[(5,5,8,8-tetramethyl-5,6,7,8-tetrahydronaphthalen-2-yl)carbamoyl]benzoic acid] |
| > 100 | 4.3 | CC1(C)CCC(C)(C)c2cc(NC(=O)c3ccc(C(=O)NO)cc3)ccc21 [N1-hydroxy-N4-(5,5,8,8-tetramethyl-5,6,7,8-tetrahydronaphthalen-2-yl)terephthalamide (7b)] |
| > 100 | – | O=C(CCCCCCC(=O)Nc1ccccc1)NO [Zolinza] |
